Results as given in patent US7109175B1, “Specific steady-state R-type CA2+ channel blockers and use thereof” (Universite de Sherbrooke, priority 2000, dated 2006).

Legend:
[1] = test system: human lymphocyte proliferation; experiment: Human lymphocyte proliferation in vitro; format: cell-based; settings: for inhibition of human lymphocyte proliferation: MV 8612 0.02 to 0.32 M, MV 8608 14.5 to 116 M
Method: In a separate series of experiments, compounds MV 8612 and MV 8608 were tested to analyze whether they interfered with human lymphocyte proliferation “in vitro”. These experiments were carried out as reported previously (Moraes et al., 1996, Eur. J. Pharmacol. 312:333–339).

R-type Ca^2+ channel [2] = experiment: Cell-attached single channel recording of R-type Ca2+ channel, human aortic VSM cell line; format: cell-based; settings: for R-type channel opening (probability, duration, frequency) / R-type single channel current: 10^−7M extra-patch pipette application; for R-type single channel amplitude and probability of opening: nifedipine 10^−6M present
Method: Also, for the R-type Ca^2+ channel current, the effect of the compounds are tested on the R-type Ca^2+ channel amplitude, voltage dependency and probability of opening, by using the cell-attached patch clamp technique (Bkaily 1994, supra; 1996, supra) and intra and extra patch pipette application of the drug.
In another series of experiments (n=7), using the cell attached patch clamp technique (Bkaily G. 1994, supra; Bkaily G. et al., 1996, supra), the effect of 10^−7M of MV8608 on the R-type Ca^2+ channel in human aortic vascular smooth muscle cell line was tested. […] In a second series of experiments (n=3), the patch pipette solution was free of MV8608 and after recording the single channel activities at different voltages, MV8608 (final concentration of 10^−7M) was applied to the extra-patch pipette solution containing 140 mM KCl (where the rest of the cell is bathing). This experiment was designed to verify whether MV8608 crossed the cell membrane and if so, whether its effect from the internal side of the channel under the patch is the same as that when applied at the outer side thereof. […] Such a pattern of increase of probability of opening and the open duration accompanied with the sporadic decrease of the single channel current amplitude has never been observed when MV8608 was applied at the outer side of the single channel under the patch pipette.
In another series of experiments (n=7), the effect of 10^−7M of MV8612 was tested on the R-type Ca^2+ in human aortic VSM cells, using the single channel cell attached recording technique and intra and extra patch pipette application of drugs.
In one series of experiments (n=3), MV8612 (total concentration, 10^−7M) was only applied to the patch pipette. […] As for MV8608, in one series of experiments (n=4), MV8612 (10^−7M) was only applied to the extra-patch pipette, in order to verify if the compound penetrates into the cytosol and if so, how it affects the R-type Ca^2+ channel activity.

[3] = test system: human aortic vascular smooth muscle cell line; experiment: Spontaneous proliferation of human aortic vascular smooth muscle cell line; format: cell-based; settings: 10^−8M
R-type Ca^2+ channel [4] = experiment: Fura-2 [Ca]i, rabbit aortic vascular smooth muscle cells; format: cell-based; settings: 10^−9M
Source text: This sustained increase of Ca^2+ induced by depolarization of the cell membrane or hormones such as PAF, ET-1 and bradykinin is due to the increase of Ca^2+ influx through the R-type Ca^2+ channels at the sarcolemmal membrane and/or the nuclear membrane (Bkaily G., 1994, supra; 1996, supra; 1997a–d, supra). Using Ca^2+ fluorescence probes Fura-2 or Fluo-3 and 2 and three-dimension Ca^2+ imaging techniques (Bkaily G., 1994, supra; 1996, supra; 1997a–d, supra), the effect of hormones and drugs could be easily tested. These two methods are used with single cells of different types as described above.
In another series of experiments we tested the effect of MV8608 (10^−9M) on R-type Ca^2+ channels stimulation-induced sustained increase of total intracellular Ca^2+ by sustained depolarization (FIGS. 15 to 19), by PAF (10^−9M) (FIGS. 16 to 19 and 21 to 22), by ET-1 (10^−9M) (FIGS. 16 and 19) and bradykinin (BK, 10^−6M) (FIGS. 20 and 21), in embryonic chick heart cells (FIGS. 15, 16, 19 and 20), 19-week-old human fetal heart cells (FIGS. 15, 17, 18 and 20), rabbit aortic vascular smooth muscle (VSM) cells (FIGS. 20 and 21), human aortic VSM cell-line (FIG. 23) and freshly isolated (FIG. 22) as well as in freshly isolated aortic endothelial cells (FIG. 22). […]

[5] = test system: writhing response in mice; experiment: Writhing response in mice (acetic acid, acetylcholine, kaolin); format: in vivo; settings: for acetic acid, acetylcholine and kaolin-induced writhing response: MV 8612 0.25 to 2.5, MV 8608 2.7, i.p., 30 min prior
Source text: The antinociceptive actions of compound MV 8612 and MV 8608 were investigated in different models of nociception in mice as reported previously (Vaz et al., 1996, J. Pharmacol. Exp. Ther. 278:304–312).

rat paw oedema = experiment: Rat paw oedema; format: in vivo; settings: for des-Arg^9-bradykinin-induced paw oedema: 10 and 100 nmol/paw co-injected, rats treated with LPS
Method: In this experiment (N=5 to 6 animals per group), the anti-oedemagenic action of compounds MV 8608 and MV 8612 against bradykinin and several mediators which are reported to be involved in the inflammatory processes, was evaluated. The procedures used to perform these experiments have been reported elsewhere (Neves et al., 1993, Eur. J. Pharmacol. 243:213–219; Campos et al., 1995, Br. J. Pharmacol. 114:1005–1013; Campos et al., 1996, Br. J. Pharmacol. 117:793–798; Eur. J. Pharmacol. 316:227–286). […] As reported previously, in rats treated […] prior to a systemic injection of LPS, both B1 and B2 kinin selective agonists caused marked oedema formation (FIGS. 37C and D (Campos et al., 1996, supra)).

[6] = 100 nmol/paw, rats treated 30 days prior

C[C@]12CC[C@H](O)CC1=CC[C@@H]1[C@@H]2CC[C@]2(C)[C@H]3[C@@H]4OC[C@H]3O[C@@H](O)[C@]12O4 [MV8608, (15R, 16R, 20S)-14, 16:15,20:16,21-triepoxi-15,16-seco 14β, 17α-pregn-5-ene-3β, 15-diol]
inhibition of human lymphocyte proliferation [1]: graded inhibition | R-type channel opening (probability, duration, frequency) (R-type Ca^2+ channel [2]): increased the probability and duration of opening | R-type single channel current (R-type Ca^2+ channel [2]): spontaneous decrease and release of the blockade of the single channel current | R-type single channel conductance (R-type Ca^2+ channel [2]; 10^−7M in the patch pipette): without affecting its single channel conductance | R-type single channel amplitude and probability of opening (R-type Ca^2+ channel [2]; 10^−7M in the patch pipette): decreased the single channel amplitude and probability of opening | spontaneous proliferation [3]: significantly decreased | sustained increase of [Ca]i (R-type Ca^2+ channel [4]; BK 10^−6M and PAF 10^−9M): blockade | acetic acid, acetylcholine and kaolin-induced writhing response [5]: only partial or even no antinociceptive action | PAF-induced paw oedema (rat paw oedema; 100 nmol/paw): consistently inhibited | PGE2-induced paw oedema (rat paw oedema; 100 nmol/paw): partially inhibited | substance P-induced paw oedema (rat paw oedema; 100 nmol/paw): unaffected | bradykinin-induced paw oedema (rat paw oedema; [6]): significantly inhibited | des-Arg^9-BK-induced paw oedema (rat paw oedema; [6]): significantly inhibited | carrageenan-induced paw oedema (rat paw oedema; 10 and 100 nmol/paw): significantly prevented | dextran-induced paw oedema (rat paw oedema; 10 and 100 nmol/paw): significantly prevented | histamine-induced paw oedema (rat paw oedema; 10 and 100 nmol/paw): significantly prevented | potentiation of paw oedema by low dose des-Arg^9-BK plus PAF (rat paw oedema; 10 and 100 nmol/paw): prevented the potentiation | potentiation of paw oedema by low dose des-Arg^9-BK plus PGE2 (rat paw oedema; 10 and 100 nmol/paw): prevented the potentiation | serotonin-induced paw oedema (rat paw oedema; 10 and 100 nmol/paw): significantly prevented | des-Arg^9-bradykinin-induced paw oedema (rat paw oedema): dose-related inhibition | ovalbumin-induced paw oedema (rat paw oedema; 10 and 100 nmol/paw, actively sensitised animals): inhibited significantly | bradykinin-induced hindpaw oedema (rat paw oedema; 10 and 100 nmol/paw, animals treated with LPS): no significant effect

COC1CC(OC2C(C)OC(O[C@H]3CC[C@@]4(C)C(=CC[C@@H]5[C@@H]4CC[C@]4(C)[C@H]6[C@@H]7OC[C@H]6O[C@@H](O)[C@]54O7)C3)CC2OC)OC(C)C1OC1CC(OC)C(OC2CC(OC)C(OC3OC(C)C(OC(C)=O)C(OC)C3OC(C)=O)C(C)O2)C(C)O1 (stereo partly drawn) [MV8612]
inhibition of human lymphocyte proliferation [1]: graded inhibition | potency ratio MV 8612 versus MV 8608, lymphocyte proliferation ([1]; more potent): about 570 fold | R-type channel opening (probability, duration, frequency) (R-type Ca^2+ channel [2]): rapidly increased the R-type Ca^2+ opening frequence | R-type single channel current (R-type Ca^2+ channel [2]): small decrease in the single channel current | R-type single channel amplitude and probability of opening (R-type Ca^2+ channel [2]; 10^−7M in the patch pipette): significantly decreased | decrease of R-type single Ca2+ channel current amplitude (R-type Ca^2+ channel [2]; 10^−7M via the patch pipette, n=3): about 75 % of the control value | extent of blocking of R-type channel amplitude and probability of opening, comparison (R-type Ca^2+ channel [2]; intra-patch pipette, MV8612 versus MV8608): superior to that of MV8608 | spontaneous proliferation [3]: significantly decreased | sustained increase of [Ca]i (R-type Ca^2+ channel [4]; sustained depolarization and ET-1 10^−9M): blockade | acetic acid, acetylcholine and kaolin-induced writhing response [5]: dose-dependent inhibition | acetic acid-induced writhes, i.c.v. ([5]; MV 8612 4.2 to 42 nmol/site, morphine 0.26 to 13 nmol/site): dose-related antinociception | ID50 ACETIC ACID ([5]; i.p., mice, acetic acid-induced writhes): 2.4 (1.9–2.6) μmol/kg | ID50 ACETYLCHOLINE ([5]; i.p., mice, acetylcholine-induced writhes): 2.2 (2.0–2.3) μmol/kg | ID50 KAOLIN ([5]; i.p., mice, kaolin-induced writhes): 0.4 (0.3–0.6) μmol/kg | potency versus morphine, i.c.v., acetic acid-induced writhes ([5]; less potent than morphine): about 12 fold | potency against kaolin-induced pain versus the other writhing models ([5]; more potent): about 2 fold | potency versus morphine and indomethacin, kaolin-induced writhes ([5]; more potent): about 2 fold | oedema by bradykinin plus PAF (rat paw oedema; 10 nmol/paw): did not interfere | oedema by low dose bradykinin plus PGE2 (rat paw oedema; 10 nmol/paw): significantly inhibited | oedema by low dose bradykinin plus calcitonin gene related peptide (rat paw oedema; 10 nmol/paw): significantly inhibited | oedema by low dose bradykinin plus prostacyclin (rat paw oedema; 10 nmol/paw): significantly inhibited | PAF-mediated paw oedema (rat paw oedema; 10 and 100 nmol/paw): only a minimal inhibition | PGE2-induced paw oedema (rat paw oedema; 10 and 100 nmol/paw): dose-dependently inhibited | bradykinin-induced paw oedema (rat paw oedema; 10 and 100 nmol/paw): significantly inhibited | carrageenan-induced paw oedema (rat paw oedema; 10 and 100 nmol/paw): dose-dependently inhibited | substance P-mediated paw oedema (rat paw oedema; 10 and 100 nmol/paw): only a minimal inhibition | tyr^8-bradykinin-induced paw oedema (rat paw oedema; 10 and 100 nmol/paw): significantly inhibited | des-Arg^9-bradykinin-induced paw oedema (rat paw oedema): no significant effect | bradykinin-induced oedema in animals treated with cyprohetadine or compound 48/80 (rat paw oedema; intraperitoneal injection (FIG. 44)): dose-related inhibition was still observed | duration of inhibition of bradykinin oedema (rat paw oedema; subplantar): at least 2 h | onset of inhibition of bradykinin oedema (rat paw oedema; subplantar): 30 min | bradykinin oedema in controlateral paw treated with saline (rat paw oedema; systemic effect of subplantar injection): significant anti-oedemagenic action
